Patent US8501729B2 (Albany Molecular Research, Inc., priority 2008, dated 2013)
Like-named read-outs stand apart in the source and are kept apart here. Each block holds one compound with its values, some of them ahead of it.

Key:
5-HT3 receptors = 5-HT3 receptors (Mus musculus (Mouse), UniProt P23979); experiment: von Bezold-Jarisch model in vivo: inhibition of 5-HT induced bradycardia; details: 60 min before 5-HT 0.1 mg/kg IV, highest oral dose tested
Description: This is a well characterized and widely used model to assess 5-HT3 receptor function in vivo (King et al., 5-Hydroxtryptamine-3 Receptor Antagonists, CRC Press, pp. 74-75 (1993), which is hereby incorporated by reference in its entirety). Certain compounds (Table 1) were evaluated for their ability to inhibit serotonin induced bradycardia in vivo in the mouse (Saxena et al., Arch. Int. Pharmacodyn., 277:235-252 (1985), which is hereby incorporated by reference in its entirety). Test substances and vehicle [2% Tween 80] were each administered orally to a group of 5 male CD-1(Crl.) mice each weighing 24±2 g. A dosing volume of 10 mL/kg was used. Sixty minutes later, 5-HT (0.1 mg/kg IV)-induced bradycardia was recorded in urethane (2250 mg/kg IP, given 10 minutes before 5-HT)-anesthetized animals.

[1] = biological target: recombinant human 5-HT3A receptors (Homo sapiens (Human), UniProt P46098); experiment: agonist activity (Ca2+ fluorescence, Fluo-4) in HEK293 cells expressing the h5-HT3A receptor subunit; format: cell-based; details: for activation at 10 µM: HEK293, read-out: HEK293 h5-HT3A % agonist response
Sequence of recombinant human 5-HT3A receptors (P46098 24-478): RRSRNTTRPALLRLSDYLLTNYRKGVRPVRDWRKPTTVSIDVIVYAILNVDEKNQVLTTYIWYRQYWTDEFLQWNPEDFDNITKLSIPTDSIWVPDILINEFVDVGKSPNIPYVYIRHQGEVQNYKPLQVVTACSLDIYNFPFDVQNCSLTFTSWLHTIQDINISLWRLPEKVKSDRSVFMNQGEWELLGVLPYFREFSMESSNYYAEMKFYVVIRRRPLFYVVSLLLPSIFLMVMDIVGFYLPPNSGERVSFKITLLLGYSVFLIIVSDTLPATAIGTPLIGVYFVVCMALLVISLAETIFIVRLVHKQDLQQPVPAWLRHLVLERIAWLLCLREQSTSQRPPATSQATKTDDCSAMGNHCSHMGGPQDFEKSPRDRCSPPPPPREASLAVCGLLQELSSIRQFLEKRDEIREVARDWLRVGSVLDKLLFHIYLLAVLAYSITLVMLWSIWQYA
Description: Human embryonic kidney (HEK293) cells expressing the h5-HT3A receptor subunit were seeded directly into poly-D-lysine coated, black-walled, clear bottomed, 96 well plates with approximately 1×10^5 cells per well. After 48 hrs incubation in DMEM growth media (100 μL), cells were washed twice (each 200 μL) in Hank's balanced salt solution (Invitrogen) before incubation (1 hr) with Fluo-4 acetoxymethyl (AM) ester (100 μL, 2.5 μM; Molecular Probes). Cells were washed twice (each 200 μL) in Hank's balanced salt solution and incubated for a further 30 mins in Hank's balanced salt solution (100 μL) prior to assay (25° C.). Alteration in [Ca^2+], was measured (relative fluorescence units [RFU]) using a Flexstation (excitation 488 nm and emission 515 nm; frequency of recording 3 sec). After recording for at least 80 sec, vehicle (Hank's balanced salt solution) or drug was automatically administered to the well (50 μL). Baseline was calculated from the 5 data points immediately prior to the first drug administration and the maximum response was that achieved over the 240 sec following drug administration. In all experiments the muscarinic receptor agonist carbachol (1 mM) was added 240 sec after the test drug administration.

human 5-HT3 receptor = human 5-HT3 receptor (Homo sapiens (Human), UniProt P46098); experiment: radioligand binding assay (SPA format), [9-methyl-3H]BRL-43694 displacement
Sequence of human 5-HT3 receptor (P46098 24-478): as above
Description: The relative affinity of the various compounds for the human 5-HT3 receptor was measured in a radioligand binding assay, using a scintillation proximity assay (SPA) format. Test compounds were dissolved to 10 mM in 100% DMSO, then serially diluted at 10× assay concentrations in 100% DMSO in 96-well polypropylene plates and further diluted to 4× assay concentrations with the assay buffer. […] Binding reactions were set up in wells of PicoPlates-96 (Perkin Elmer, Waltham, Mass.) by adding consecutively 50 μL, of each competing compound or buffer, SPA beads, the radioligand and 5-HT3 receptor membranes. After an overnight incubation at room temperature on a Nutator mixer, plates were centrifuged for 15 min at 1,500 rpm, followed by incubation in the dark for 30 min. Radioactivity was counted in the TopCount microplate counter (Perkin Elmer) for 5 min. […] Specific binding was determined by subtracting nonspecific binding from total binding. All experiments were performed in duplicate using ten concentrations of competing ligand, with ondansetron included as a control in every run. IC50 values were determined from specific binding data using XLfit4.1 curve fitting software from IDBS Ltd. The inhibition constant (Ki) was calculated from the Cheng Prusoff equation: (Ki=IC50/(1+(L/KD)), where L=concentration of radioligand in the assay, and KD=affinity of the radioligand for the receptor.

[2] = human 5-HT3 receptor membranes, 10 nM [3H]BRL-43694, Ki from Cheng Prusoff equation, read-out: h5-HT3A Ki

Sequence of 5-HT3 receptors (P23979 24-489): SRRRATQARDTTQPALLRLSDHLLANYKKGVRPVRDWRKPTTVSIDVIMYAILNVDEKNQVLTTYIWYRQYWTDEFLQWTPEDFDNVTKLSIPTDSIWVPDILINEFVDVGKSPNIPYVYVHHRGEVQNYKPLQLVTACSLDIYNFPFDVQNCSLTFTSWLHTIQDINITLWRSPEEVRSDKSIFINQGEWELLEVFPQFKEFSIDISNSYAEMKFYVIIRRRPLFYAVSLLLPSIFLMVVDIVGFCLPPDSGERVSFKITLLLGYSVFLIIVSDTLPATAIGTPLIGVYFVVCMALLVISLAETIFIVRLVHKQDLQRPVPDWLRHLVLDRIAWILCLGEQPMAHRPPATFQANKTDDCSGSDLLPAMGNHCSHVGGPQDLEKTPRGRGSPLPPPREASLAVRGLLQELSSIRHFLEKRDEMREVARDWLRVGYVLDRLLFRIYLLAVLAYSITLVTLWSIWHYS

Inhibition of 5-HT Induced Bradycardia in Mice (5-HT3 receptors; 1 mg/kg oral): 95% @ 1 mg/kg
SMILES: Cc1[nH]cnc1CN1CCc2c(c3ccccc3n2C)C1=O [Alosetron, reference compound]

SMILES: Cn1cc2c3c(cccc31)C(=O)N([C@@H]1CN3CCC1CC3)CC2 [Example 31, (S)-6-methyl-2-(quinuclidin-3-yl)-2,3,4,6-tetrahydro-1H-azepino[5,4,3-cd]indol-1-one]
activation at 10 µM [1]: 5%
Ki (human 5-HT3 receptor; [2]): 1 nM

SMILES: O=C1c2cccc3c2c(nn3-c2ccc(Cl)cc2)CN1[C@H]1CN2CCC1CC2 [Example 19]
Ki (human 5-HT3 receptor): 68 nM

SMILES: CN1CC2CCCC1CC(N1Cc3cn(C)c4cccc(c34)C1=O)C2 (stereo not drawn) [Example 5, Endo-5-methyl-2-(9-methyl-9-azabicyclo[3.3.1]nonan-3-yl)-2,3-dihydropyrrolo[4,3,2-de]isoquinolin-1(5H)-one]
Ki (human 5-HT3 receptor; [2]): 13 nM

SMILES: O=C1c2cc(Br)cc3[nH]nc(c23)CN1[C@H]1CN2CCC1CC2 [Example 21]
Ki (human 5-HT3 receptor): 1 nM

SMILES: CCn1nc2c3c(cccc31)C(=O)N([C@H]1CN3CCC1CC3)C2 [Example 14, (R)-2-Ethyl-7-(quinuclidin-3-yl)-7,8-dihydropyrazolo[3,4,5-de]isoquinolin-6(2H)-one]
activation at 10 µM [1]: 4%

SMILES: CC(C)Cn1nc2c3c(cccc31)C(=O)N([C@@H]1CN3CCC1CC3)C2 [Example 9]
Ki (human 5-HT3 receptor): 2 nM

SMILES: CN1C2CCCC1CC(N1Cc3nn(C)c4cccc(c34)C1=O)C2 (stereo not drawn) [Example 22, 7-(Endo-N-(9-methyl-9-azabicyclo[3.3.1]nonan-3-yl))-2-methyl-7,8-dihydropyrazolo[3,4,5-de]isoquinolin-6(2H)-one]
Ki (human 5-HT3 receptor): 34 nM

SMILES: O=C1c2cccc3c2c(cn3Cc2ccccc2)CCN1[C@@H]1CN2CCC1CC2 [Example 32, (S)-6-benzyl-2-(quinuclidin-3-yl)-2,3,4,6-tetrahydro-1H-azepino[5,4,3-cd]indol-1-one]
Ki (human 5-HT3 receptor; [2]): 1 nM

SMILES: Cn1nc2c3c(cccc31)C(=O)N([C@@H]1CN3CCC1CC3)C2 [Example 6, (S)-2-Methyl-7-(quinuclidin-3-yl)-7,8-dihydropyrazolo[3,4,5-de]isoquinolin-6(2H)-one]
Ki (human 5-HT3 receptor): 1 nM

SMILES: CCn1nc2c3c(cccc31)C(=O)N([C@@H]1CN3CCC1CC3)C2 [Example 8, (S)-2-ethyl-7-(quinuclidin-3-yl)-7,8-dihydropyrazolo[3,4,5-de]isoquinolin-6(2H)-one]
Ki (human 5-HT3 receptor): 1 nM

SMILES: CN1C2CCCC1CC(N1CCc3cn(C)c4cccc(c34)C1=O)C2 (stereo not drawn) [Example 37, Endo-6-methyl-2-(9-methyl-9-azabicyclo[3.3.1]nonan-3-yl)-2,3,4,6-tetrahydro-1H-azepino[5,4,3-cd]indol-1-one]
Ki (human 5-HT3 receptor; [2]): 267 nM

SMILES: O=C1c2cccc3[nH]cc(c23)CCN1[C@H]1CN2CCC1CC2 [Example 33, (R)-2-(Quinuclidin-3-yl)-2,3,4,6-tetrahydro-1H-azepino[5,4,3-cd]indol-1-one]
activation at 10 µM [1]: 14%
Ki (human 5-HT3 receptor; [2]): 49 nM

SMILES: Cn1cc2c3c(cccc31)C(=O)N([C@@H]1CN3CCC1CC3)C2 [Example 4, (S)-5-Methyl-2-(quinuclidin-8-yl)-2,3-dihydropyrrolo[4,3,2-de]isoquinolin-1(5H)-one]
Ki (human 5-HT3 receptor; [2]): 1 nM

SMILES: Cn1nc2c3c(cc(F)cc31)C(=O)N([C@H]1CN3CCC1CC3)C2 [Example 13]
activation at 10 µM [1]: 6%

SMILES: Cn1cc(C(=O)[C@@H]2CCc3nc[nH]c3C2)c2ccccc21 [Ramosetron, reference compound]
Ki (human 5-HT3 receptor; [2]): 0.06 nM
Inhibition of 5-HT Induced Bradycardia in Mice (5-HT3 receptors; 0.1 mg/kg oral): 77% @ 0.1 mg/kg

SMILES: O=C1c2cccc3[nH]nc(c23)CN1[C@H]1CN2CCC1CC2 [Example 16, (R)-7-(Quinuclidin-3-yl)-7,8-dihydropyrazolo[3,4,5-de]isoquinolin-6(2H)-one]
activation at 10 µM [1]: 35%

SMILES: O=C1c2cccc3c2c(cn3-c2ccc(F)cc2)CCN1[C@H]1CN2CCC1CC2 [Example 36, (R)-6-(4-fluorophenyl)-2-(quinuclidin-3-yl)-2,3,4,6-tetrahydro-1H-azepino[5,4,3-cd]indol-1-one]
inhibition at 10 µM (human 5-HT3 receptor; 10 μM, read-out: h5-HT3A inhibition @ 10 μM): 49%

SMILES: Cn1nc2c3c(cccc31)C(=O)N([C@H]1CN3CCC1CC3)C2 [Example 12, (R)-2-Methyl-7-(quinuclidin-3-yl)-7,8-dihydropyrazolo[3,4,5-de]isoquinolin-6(2H)-one]
activation at 10 µM [1]: 6%
Ki (human 5-HT3 receptor): 2 nM

SMILES: O=C1c2cccc3c2c(nn3Cc2ccccc2)CN1[C@H]1CN2CCC1CC2 [Example 17]
Ki (human 5-HT3 receptor): 5 nM

SMILES: COc1ccc(-n2nc3c4c(cccc42)C(=O)N([C@H]2CN4CCC2CC4)C3)cc1 [Example 20]
Ki (human 5-HT3 receptor): 57 nM

SMILES: O=C1c2cccc3[nH]cc(c23)CCN1[C@@H]1CN2CCC1CC2 [Example 29, (S)-2-(Quinuclidin-3-yl)-2,3,4,6-tetrahydro-1H-azepino[5,4,3-cd]indol-1-one]
HEK293 h5-HT3A % agonist response ([1]; at 10 μM, normalized to the response of 5-HT (100% at 3 μM), NR = no response): 17%
Ki (human 5-HT3 receptor; [2]): 3 nM
Inhibition of 5-HT Induced Bradycardia in Mice (5-HT3 receptors; 1 mg/kg oral): 94% @ 1 mg/kg

SMILES: Cn1cc2c3c(cccc31)C(=O)N([C@H]1CN3CCC1CC3)CC2 [Example 34, (R)-6-methyl-2-(quinuclidin-3-yl)-2,3,4,6-tetrahydro-1H-azepino[5,4,3-cd]indol-1-one]
activation at 10 µM [1]: 13%
Ki (human 5-HT3 receptor; [2]): 8 nM
Inhibition of 5-HT Induced Bradycardia in Mice (5-HT3 receptors; 3 mg/kg oral): 88% @ 3 mg/kg

SMILES: CN1C2CCC1CC(N1Cc3nn(C)c4cccc(c34)C1=O)C2 (stereo not drawn) [Example 38, Endo-2-methyl-7-(8-methyl-8-azabicyclo[3.2.1]octan-3-yl)-7,8-dihydropyrazolo[3,4,5-de]isoquinolin-6(2H)-one]
Ki (human 5-HT3 receptor): 59 nM

SMILES: CC(C)n1nc2c3c(cccc31)C(=O)N([C@H]1CN3CCC1CC3)C2 [Example 15, (R)-2-Isopropyl-7-(quinuclidin-3-yl)-7,8-dihydropyrazolo[3,4,5-de]isoquinolin-6(2H)-one]
activation at 10 µM [1]: 3%

SMILES: O=C1c2cccc3c2c(cn3Cc2ccccc2)CCN1[C@H]1CN2CCC1CC2 [Example 35, (R)-6-benzyl-2-(quinuclidin-3-yl)-2,3,4,6-tetrahydro-1H-azepino[5,4,3-cd]indol-1-one]
Ki (human 5-HT3 receptor; [2]): 13 nM
